Experimental findings from patent US9174951B2, “Glucose transporter inhibitors” (The Ohio State University Research Foundation, priority 2012, dated 2015) are described below.

One experiment deals with T1, GLUT4 (Homo sapiens, UniProt P14672).
T1 construct: The full length GLUT1, GLUT4, and GLUT9 ORF cDNA clones were purchased from Addgene; host or cells: LNCaP
T1 sequence (P14672 1-509): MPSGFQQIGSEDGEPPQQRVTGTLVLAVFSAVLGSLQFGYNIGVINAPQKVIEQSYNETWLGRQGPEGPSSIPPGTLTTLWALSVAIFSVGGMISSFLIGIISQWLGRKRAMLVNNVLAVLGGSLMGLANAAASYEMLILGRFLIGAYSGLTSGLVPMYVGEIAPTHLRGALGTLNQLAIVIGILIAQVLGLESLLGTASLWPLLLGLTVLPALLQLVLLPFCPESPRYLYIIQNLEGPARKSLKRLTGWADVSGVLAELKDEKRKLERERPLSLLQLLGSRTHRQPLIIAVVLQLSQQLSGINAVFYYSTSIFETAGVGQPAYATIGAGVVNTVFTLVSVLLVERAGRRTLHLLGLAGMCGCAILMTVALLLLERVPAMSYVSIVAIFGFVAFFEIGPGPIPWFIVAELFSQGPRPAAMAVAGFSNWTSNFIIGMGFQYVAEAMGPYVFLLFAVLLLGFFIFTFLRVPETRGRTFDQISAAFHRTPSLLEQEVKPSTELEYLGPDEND
The experiment is described as follows: [3H]2-DG uptake into LNCaP cells overexpressing GLUT4. It counts as cell-based. The note with it: for inhibition at 5 µM: LNCaP cells transfected with GLUT4, 30 min. From the text:
(§1) As information regarding the expression pattern of individual GLUT members in LNCaP cells was lacking, quantitative real time polymerase chain reaction (qRT-PCR) was used to assess the mRNA levels of the hypoxia-responsive GLUT1 and GLUT3, and three other representative GLUT members, including the class I GLUT2 and GLUT4 and the class II GLUT9. Among these five members, LNCaP cells expressed GLUT1 and, to a much lesser extent, GLUT9, while the mRNA levels of GLUTs2-4 were negligible (FIG. 3B). To examine the isoform specificity of these inhibitors, LNCaP cells were ectopically transfected with plasmids encoding GLUT1, GLUT3, GLUT4, or GLUT9 vis-à-vis the pCMV control vector so that the increased glucose uptake in GLUT-transfected cells relative to pCMV control cells was indicative of the activity of the ectopically expressed GLUT protein.
(§2) Glucose Uptake Assay. LNCaP cells were seeded in six-well plates (3×10^5 cells/well) for 24 h. Cells were washed twice with Krebs-Ringer phosphate buffer (126 mM NaCl, 2.5 mM KCl, 25 mM NaHCO3, 1.2 mM NaH2PO4, 1.2 mM MgCl2, 2.5 mM CaCl2, pH 7.4) and were then treated with individual agents in Krebs-Ringer phosphate buffer. After 1.5 h, glucose uptake was initiated by adding 1 mL Krebs-Ringer buffer containing […] [^3H]2-DG (PerkinElmer Life Science) and […] non-radioactive 2-DG and was terminated by washing with cold PBS. The cells were lysed in […] lysis buffer (10 mM Tris-HCl pH 8.0, 0.1% SDS) and aliquots were taken for measurement of radioactivity using a scintillation counter (Beckman LS6500).
Plasmid Construction, Transient Transfection and Immunoblotting. The full length GLUT1, GLUT4, and GLUT9 ORF cDNA clones were purchased from Addgene (Cambridge, Mass.) and GLUT3 ORF cDNA was purchased from Origene Technologies (Rockville, Md.). GLUT1, GLUT3, and GLUT9 were subcloned into the HindIII/SalI sites and GLUT4 was subcloned into the EcoRI/SalI sites of pEGFP-N2 expression vector (Clontech, Palo Alto, Calif.). […]

The target of the next experiment is T2, GLUT1 (Homo sapiens, UniProt P11166).
T2 construct: The full length GLUT1, GLUT4, and GLUT9 ORF cDNA clones were purchased from Addgene; EGFP (from the pEGFP-N2 vector); host or cells: LNCaP
T2 sequence (P11166 1-492): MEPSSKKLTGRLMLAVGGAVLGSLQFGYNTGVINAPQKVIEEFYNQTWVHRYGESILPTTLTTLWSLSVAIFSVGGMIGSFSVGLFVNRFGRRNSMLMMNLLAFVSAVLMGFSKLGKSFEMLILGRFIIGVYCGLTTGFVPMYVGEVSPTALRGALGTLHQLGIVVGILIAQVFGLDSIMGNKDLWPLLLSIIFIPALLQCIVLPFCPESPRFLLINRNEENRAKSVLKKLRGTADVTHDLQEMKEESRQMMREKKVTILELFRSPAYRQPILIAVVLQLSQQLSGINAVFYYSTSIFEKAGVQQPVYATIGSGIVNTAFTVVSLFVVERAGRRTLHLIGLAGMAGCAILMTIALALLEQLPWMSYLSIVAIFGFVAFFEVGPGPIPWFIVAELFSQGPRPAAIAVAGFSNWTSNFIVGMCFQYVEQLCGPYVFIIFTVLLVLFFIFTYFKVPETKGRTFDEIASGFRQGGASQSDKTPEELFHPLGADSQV
The experiment is described as follows: [3H]2-DG uptake into LNCaP cells overexpressing GLUT1. The format is cell-based. The note with it: for IC50: LNCaP cells overexpressing GLUT1, read-out: IC50 in inhibiting GLUT1-mediated [3H]2-DG uptake; for inhibition at 5 µM: LNCaP cells transfected with GLUT1, 30 min.
Description: as §1, §2
Plasmid Construction, Transient Transfection and Immunoblotting. The full length GLUT1, GLUT4, and GLUT9 ORF cDNA clones were purchased from Addgene (Cambridge, Mass.) and GLUT3 ORF cDNA was purchased from Origene Technologies (Rockville, Md.). GLUT1, GLUT3, and GLUT9 were subcloned into the HindIII/SalI sites and GLUT4 was subcloned into the EcoRI/SalI sites of pEGFP-N2 expression vector (Clontech, Palo Alto, Calif.). Transfections were performed by electroporation using Nucleofector kit R of the Amaxa Nucleofector system (Lonza, Walkersville, Md.) according to the manufacturer's protocol. Immunoblotting was performed using cells lysates harvested with SDS lysis buffer (1% SDS, 50 mM Tris-HCl pH 8.0, 10 mM EDTA) containing 1× protease inhibitor cocktail (Sigma) and phosphatase inhibitor and were electrophoresed in 8˜12% SDS polyacrylamide gels and then transferred onto nitrocellulose membranes. After blotting in 5% nonfat dry milk, the membranes were incubated with primary antibodies at 1:1,000 dilution in TBS-Tween 20 overnight at 4° C., and then secondary antibodies conjugated with horseradish peroxidase at 1:5,000 dilution in TBS-Tween 20 for 1 hour at room temperature. […]

The test system of another experiment is LNCaP cells. The experiment in a line: MTT cell viability assay, LNCaP. The format is cell-based, human. The note with it: for IC50: 72 h, MTT, 10% FBS. Here is the method: Cell Viability Assay. Cell viability was determined using the 3-(4,5-dimethylthiazol-2-yl)-2,5-diphenyltetrazolium bromide (MTT) assay. Cancer cells were seeded at 5000 cells/well and normal cells were seeded at 8000 cells/well in 96-well plates and incubated in 10% FBS-supplemented medium for 24 h. Cells were then treated with individual agents for 72 h. Drug-containing medium was replaced with medium containing MTT (0.5 mg/mL), followed by incubation at 37° C. for 1 h. After removal of medium, the reduced MTT dye in each well was solubilized in 100 μL of DMSO and absorbance at 570 nm was measured.
Compound 30 was evaluated for antiproliferative activity in panels of different human cancer cells lines, including those of prostate, breast and pancreatic cancers. In all experiments, cells were treated with a range of concentrations of Compound 30 in the presence of 10% fetal bovine serum (FBS). Cell viability was then determined after 72 h of treatment using the 3-(4,5-dimethylthiazol-2-yl)-2,5-diphenyltetrazolium bromide (MTT) assay. […] It is noteworthy that despite this high antiproliferative potency, normal human prostate epithelial cells (PrECs) were resistant to the cytotoxic effect of Compound 30 even at 10 μM.
Background: Tetrazolium dyes change colour on reduction, which living cells bring about.

Take `CCC(CC)CN1C(=O)S/C(=C\c2ccc(O)c(C(F)(F)F)c2)C1=O` [Compound 5]: the inhibition at 5 µM at GLUT4 amounted to 32%; on GLUT1, 53%. The IC50 on GLUT1 was 5 µM; in the experiment on LNCaP cells (Homo sapiens, LNCaP) it was 4.2 µM.

In the case of `CC(CN1C(=O)S/C(=C\c2ccc(O)c(C(F)(F)F)c2)C1=O)(CC(F)(F)F)CC(F)(F)F` [Compound 30, 5-(4-Hydroxy-3-trifluoromethyl-benzylidene)-3-[4,4,4-trifluoro-2-methyl-2-(2,2,2-trifluoro-ethyl)-butyl]-thiazolidine-2,4-dione], the half-maximal inhibitory concentration (IC50) at GLUT4 (LNCaP cells overexpressing GLUT4, read-out: IC50 for GLUT4-mediated [3H]2-DG uptake) is no less than 5 µM; on GLUT1, 2 µM; with LNCaP cells (Homo sapiens, LNCaP), 1.5 µM; in the experiment on LNCaP cells, 1.5 to 1.7 µM. Besides, the inhibition at 5 µM was 42% against GLUT4 and 73% at GLUT1. Further, the “improvement over compound 1 (IC50, [3H]-2DG uptake and viability of LNCaP cells)” value with LNCaP cells (relative to compound 1) is on record as 40 fold.

The term inhibition denotes the relative decrease from the control value, in per cent. Read a low inhibition as a weak effect. As usually defined, the IC50 is the concentration that gives 50% inhibition.
